Results as given in patent EP0911319A1, “Malonic acid based matrix metalloproteinase inhibitors” (Roche Diagnostics GmbH, priority 1997, dated 1999).
pIC50: −log10 of the molar value. Read-outs that look alike come from different tables or passages of the source.

Biological target: catalytic domain (Met80-Gly242) of human neutrophil collagenase (Homo sapiens, UniProt P22894)
Format: biochemical
Details: towards HNC, 8 nM enzyme, 10 µM DNP-Pro-Leu-Gly-Leu-Trp-Ala-D-Arg-NH2, 50 mM Tris/HCl pH 7.6, 25°C
Protocol: Determination of the inhibitory effect (enzyme assay)
In order to determine the inhibition of MMPs, for example HNC, the catalytic domain (isolation and purification see example 1) is incubated with inhibitors having various concentrations. […] The synthetic MMP substrate is a heptapeptide which is coupled, at the C-terminus, with DNP (Dinitrophenol). Said DNP residue quenches by steric hindrance the fluorescence of the adjacent tryptophane of the heptapeptide. After cleavage of a tripeptide which includes the DNP group, the tryptophane fluorescence increases. […] The reaction was started directly by giving the substrate into the solution. The cleavage of the fluorogenic substrate was followed by fluorescence spectroscopy with an excitation and emission wavelength of 280 and 350 nm, respectively. The IC50 value was calculated as the inhibitor concentration, which is necessary to decrease the velocity of the reaction to the half in comparison to the reaction without inhibitor.

catalytic domain (Met80-Gly242) of human neutrophil collagenase, sequence (P22894 100-262): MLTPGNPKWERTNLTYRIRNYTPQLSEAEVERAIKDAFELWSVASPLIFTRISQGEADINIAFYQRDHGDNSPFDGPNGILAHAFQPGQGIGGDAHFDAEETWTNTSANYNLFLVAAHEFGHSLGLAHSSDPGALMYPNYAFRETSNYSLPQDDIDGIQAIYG

Compound | pIC50 (read-out: IC50) | pIC50
O=C(NO)C(Cc1ccccc1)C(=O)NCCCc1ccccc1 (racemic) [Example 4, (±)-HONH-Mal(Bn)-NH-(CH2)3-C6H5] | 6.19 | –
CCCCCCCCNC(=O)C(CC(C)C)C(=O)NO (racemic) [Example 2, (±)-HONH-Mal(iBu)-NH-(CH2)7-CH3] | 6.52 | –
CC(C)CC(C(=O)NO)C(=O)NCCCc1ccccc1 (racemic) [Example 1, (±)-HONH-Mal(iBu)-NH-(CH2)3-C6H5] | – | 6.21
O=C(NO)C(CCc1ccccc1)C(=O)NCCCc1ccccc1 (racemic) [Example 3, (±)-HONH-Mal(CH2CH2-C6H5)-NH-(CH2)3-C6H5] | 6.25 | –
